For data set [1] the following is noted: cited from earlier work.
The conditions of data set [2]: in mixture of mono- and diglycerides of capric and caprylic acid (Capmul MCM); 48 h at 30° C.
Method: Samples were blanketed with nitrogen, sonicated for 30 min, then placed in a thermostatic orbital shaker and continuously shaken at 300 rpm for 48 h at 30° C.

Consider three compounds from patent publication US20260232006A1, “EMULSIONS FOR NICOTINE ENCAPSULATION” (NICOVENTURES TRADING LIMITED, priority 2023, published 2026).

`COC(=O)/C=C/C(C)=C\C=C\C(C)=C\C=C\C=C(C)\C=C\C=C(C)\C=C\C(=O)O` [bixin, (2E,4E,6E,8E,10E,12E,14E,16Z,18E)-20-methoxy-4,8,13,17-tetramethyl-20-oxoicosa-2,4,6,8,10,12,14,16,18-nonaenoic acid]: in data set [1], the “solubility in fats and alcohols” value is on record as “soluble”; the solubility in water result is on record as “insoluble”. Also, the chemical stability result in data set [1] (isolated, isomerizes to trans-bixin) is “chemically unstable when isolated”.

Consider `CN1CCCC1c1cccnc1.O=C(O)c1ccccc1` (centres unmarked) [nicotine benzoate], for which the “highest nicotine benzoate solubility in oil without sedimentation” value in data set [2] turned out to be 30 % by weight.

On to `CC(/C=C/C=C(C)/C=C/C(=O)O)=C\C=C\C=C(C)\C=C\C=C(C)\C=C\C(=O)O` (stereo in doubt) [norbixin, (2E,4E,6E,8E,10E,12E,14E,16E,18E)-4,8,13,17-tetramethylicosa-2,4,6,8,10,12,14,16,18-nonaenedioic acid], for which the solubility in water result in data set [1] was “water-soluble”.
